The values below come from ChEMBL document CHEMBL1201862, “PubChem BioAssay data set” (2004).

Some test systems named below: OVCAR-3; NCI-H23; NCI/ADR-RES; OVCAR-5; SNB-75; UO-31; NCI-H460; CCRF-CEM; UACC-62; UACC-257; HOP-62; HCT-116; HCC 2998; LOX IMVI; Malme-3M; RXF 393; DU-145; TK-10; OVCAR-4.
Test in all cases: NCI tumour cell line growth inhibition, 48 h

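Method: 48-hour compound exposure of cells in 96-well plates, five concentrations, linear interpolation of endpoints. GI50 is the concentration that inhibits growth by half.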 Active and inactive are the calls of the source. Rule as the data show it: active = GI50 up to about 1.1 µM and inactive = higher. A value given as a limit tells only on which side of the number the result lay.

On to `CC1(C)C2CCC(=O)C1CC2` (configuration not stated), for which the GI50 in the assay with OVCAR-3, in the assay with NCI-H23, in the assay on NCI/ADR-RES, in the assay on OVCAR-5, with SNB-75 and with UO-31 was > 100 µM (inactive) throughout. Moreover, the GI50 in the assay with NCI-H460, with CCRF-CEM, with UACC-62, in the assay with UACC-257, in the assay on HOP-62 and in the assay on HCT-116 was > 100 µM (inactive) in each case. The GI50 in the assay with HCC 2998, in the assay with LOX IMVI, in the assay with Malme-3M, with RXF 393, in the assay on DU-145 and in the assay with TK-10 was > 100 µM (inactive) throughout.

Consider `Cn1c(CCC2(C)Cc3ccccc3C(=O)O2)cc2ccccc2c1=O` (configuration not stated), for which the GI50 in the assay with OVCAR-3 was 21 µM (inactive); in the assay with NCI-H23 it was 24.7 µM (inactive); in the assay with NCI/ADR-RES, 26.3 µM (inactive); in the assay on OVCAR-5 it was 32.8 µM (inactive); in the assay on SNB-75 it was 22.4 µM (inactive); in the assay with UO-31 it was 15.7 µM (inactive). Further, the GI50 in the assay on NCI-H460 was 24.8 µM (inactive); in the assay with CCRF-CEM it was 12.7 µM (inactive); with UACC-62 it was > 10 µM (inactive); in the assay on HOP-62 it was 18.5 µM (inactive); in the assay on HCC 2998, 34.4 µM (inactive); in the assay with Malme-3M, 35.2 µM (inactive). For the same compound, the GI50 is 10.2 µM (inactive) in the assay on RXF 393, 36 µM (inactive) in the assay on OVCAR-4 and 23.7 µM (inactive) in the assay with DU-145.

As for `NC(=O)CO/N=C1/C(=C2/C(=O)Nc3ccccc32)Nc2ccccc21`, the GI50 was 4.49 µM (inactive) with OVCAR-3; 0.811 µM (active) in the assay with NCI-H23; > 100 µM (inactive) in the assay on NCI/ADR-RES; > 100 µM (inactive) in the assay with OVCAR-5; > 100 µM (inactive) with SNB-75; 1.77 µM (inactive) in the assay with UO-31. For the same compound, the GI50 in the assay with NCI-H460 is 1.11 µM (active); in the assay on CCRF-CEM, 11.5 µM (inactive); in the assay with UACC-62, 5.87 µM (inactive); with UACC-257 it was > 100 µM (inactive); in the assay on HOP-62, 22.6 µM (inactive); with HCT-116 it was 0.755 µM (active). Also, the GI50 is 1.04 µM (active) in the assay on LOX IMVI; > 100 µM (inactive) in the assay on Malme-3M; 0.491 µM (active) in the assay with RXF 393; > 100 µM (inactive) in the assay with OVCAR-4; 1.67 µM (inactive) in the assay with DU-145; 3.85 µM (inactive) with TK-10.

As for `CN(C(=O)Cc1ccc(Cl)c(Cl)c1)[C@@H]1CCCC[C@H]1[N+]1(C)CC=CC1`, the GI50 in the assay on OVCAR-3, in the assay with NCI-H23, in the assay on NCI/ADR-RES, in the assay with OVCAR-5, in the assay with UO-31 and in the assay with UACC-62 was > 100 µM (inactive) throughout. Also, the GI50 in the assay with UACC-257, in the assay with HOP-62, in the assay with HCT-116, in the assay on HCC 2998, in the assay on LOX IMVI and in the assay on Malme-3M was > 100 µM (inactive) each time. Also, the GI50 with RXF 393, in the assay on OVCAR-4, in the assay on DU-145 and in the assay on TK-10 was > 100 µM (inactive) in each case.

For `Cc1ccc(/C=C2\CCS(=O)(=O)c3ccccc3C2=O)cc1`, the GI50 with OVCAR-3 was 17.2 µM (inactive); in the assay with NCI-H23 it was 15.5 µM (inactive); in the assay with NCI/ADR-RES, 11.5 µM (inactive); with OVCAR-5, 26.7 µM (inactive); with SNB-75, 16.7 µM (inactive); in the assay with UO-31, 12.6 µM (inactive). The GI50 is 14.8 µM (inactive) in the assay on NCI-H460; 13.8 µM (inactive) in the assay with CCRF-CEM; 17.3 µM (inactive) in the assay with UACC-62; 18.5 µM (inactive) in the assay on UACC-257; 26.7 µM (inactive) with HOP-62; 13.1 µM (inactive) with HCT-116. Moreover, the GI50 in the assay with HCC 2998 was 14.7 µM (inactive); with LOX IMVI, 15.2 µM (inactive); in the assay on RXF 393 it was 22.7 µM (inactive); with OVCAR-4 it was 15 µM (inactive); in the assay on DU-145, 14.2 µM (inactive); in the assay with TK-10 it was 16.6 µM (inactive).

Take `Cc1ccc([N+](=O)[O-])cc1S(=O)(=O)Nc1ccc(C2=NN(S(=O)(=O)c3cc([N+](=O)[O-])ccc3C)C(c3ccco3)C2)cc1` (configuration not stated): the GI50 with OVCAR-3 is 37.1 µM (inactive); in the assay on NCI-H23, 37.6 µM (inactive); with NCI/ADR-RES, 40.3 µM (inactive); in the assay on OVCAR-5, > 100 µM (inactive); in the assay with SNB-75, > 100 µM (inactive); in the assay with UO-31, 41.1 µM (inactive). Also, the GI50 with CCRF-CEM was 27.6 µM (inactive); in the assay on UACC-62, 21.8 µM (inactive); in the assay with UACC-257, 11.1 µM (inactive); in the assay with HOP-62 it was 45.2 µM (inactive); in the assay on HCT-116, 31.9 µM (inactive); in the assay with LOX IMVI it was 39 µM (inactive). Also, the GI50 is 47.2 µM (inactive) with Malme-3M, 26.8 µM (inactive) in the assay on RXF 393, 74.8 µM (inactive) in the assay on OVCAR-4 and 45 µM (inactive) in the assay on DU-145.

Consider `COc1ccc(NC(=O)CC(=O)N2N=C(c3ccccc3)C(/N=N/c3ccc(S(=O)(=O)CCOS(=O)(=O)O)cc3)C2=O)cc1` (configuration not stated), for which the GI50 in the assay on OVCAR-3, in the assay on NCI-H23, in the assay on NCI/ADR-RES, with SNB-75, in the assay with UO-31 and in the assay on NCI-H460 was > 100 µM (inactive) in each case. In addition, the GI50 in the assay with CCRF-CEM, in the assay with UACC-62, in the assay on UACC-257, in the assay with HOP-62, in the assay on HCT-116 and in the assay with HCC 2998 was > 100 µM (inactive) in each case. The GI50 with LOX IMVI, in the assay with Malme-3M, in the assay on RXF 393, in the assay on DU-145 and in the assay with TK-10 was > 100 µM (inactive) each time.

Consider `C=C1CCC[C@@H](C)C(O)[C@@H]2OC(=O)C(=C)[C@@H]2C[C@@H](OC(C)=O)[C@@]2(C)CC[C@@H]1O2` (some centres not stated), for which the GI50 in the assay on OVCAR-3 is 5.37 µM (inactive); in the assay on NCI-H23, 8.09 µM (inactive); in the assay on NCI/ADR-RES, 6.78 µM (inactive); with OVCAR-5 it was 7.87 µM (inactive); in the assay with SNB-75 it was 0.91 µM (active); with UO-31 it was 8.09 µM (inactive). Moreover, the GI50 is 1.54 µM (inactive) with CCRF-CEM; 4.53 µM (inactive) in the assay with UACC-62; 8.18 µM (inactive) in the assay on UACC-257; 8.09 µM (inactive) with HOP-62; 6.97 µM (inactive) in the assay on HCT-116; 7.89 µM (inactive) in the assay with HCC 2998. Besides, the GI50 with RXF 393 was 6.49 µM (inactive); in the assay with OVCAR-4, 13.7 µM (inactive); in the assay with DU-145, 7.66 µM (inactive); in the assay with TK-10, 7.96 µM (inactive).

For the compound `CSc1c(C#N)c(N)n(-c2ccc(Cl)cc2)c(=O)c1C#N`, the GI50 in the assay on OVCAR-3 is > 100 µM (inactive); with NCI-H23 it was > 100 µM (inactive); in the assay on NCI/ADR-RES it was > 100 µM (inactive); with OVCAR-5, > 100 µM (inactive); in the assay with SNB-75 it was 78 µM (inactive); in the assay on UO-31 it was > 100 µM (inactive). Moreover, the GI50 in the assay with NCI-H460, in the assay with UACC-62, with UACC-257, in the assay with HCT-116, in the assay on HCC 2998 and in the assay with LOX IMVI was > 100 µM (inactive) each time. Further, the GI50 in the assay with Malme-3M, in the assay with RXF 393, in the assay on OVCAR-4, in the assay on DU-145 and in the assay with TK-10 was > 100 µM (inactive) each time.

As to `COC(=O)Nc1nc2cc(S(=O)(=O)N3CCOCC3)ccc2[nH]1`, the GI50 in the assay with OVCAR-3 was > 100 µM (inactive); in the assay with NCI-H23, > 100 µM (inactive); with NCI/ADR-RES, > 100 µM (inactive); with OVCAR-5, > 100 µM (inactive); with SNB-75, 69.8 µM (inactive); in the assay on UO-31, > 100 µM (inactive). Moreover, the GI50 in the assay with NCI-H460 is > 100 µM (inactive); with CCRF-CEM, 52.8 µM (inactive); in the assay on UACC-62 it was > 100 µM (inactive); with UACC-257 it was > 100 µM (inactive); with HOP-62, 91.8 µM (inactive); in the assay on HCT-116 it was > 100 µM (inactive). Moreover, the GI50 in the assay on LOX IMVI is > 100 µM (inactive); in the assay on Malme-3M, > 100 µM (inactive); with RXF 393, > 100 µM (inactive); in the assay with OVCAR-4 it was > 100 µM (inactive); with DU-145, > 100 µM (inactive); in the assay on TK-10, 80.2 µM (inactive).

In the case of `Clc1n[nH]c2ccccc12`, the GI50 with OVCAR-3, with NCI-H23, in the assay with NCI/ADR-RES, in the assay with OVCAR-5, in the assay with SNB-75 and in the assay on UO-31 was > 100 µM (inactive) each time. The GI50 in the assay with NCI-H460, with CCRF-CEM, in the assay with UACC-62, with UACC-257, in the assay on HOP-62 and with HCT-116 was > 100 µM (inactive) each time. In addition, the GI50 with HCC 2998, in the assay on Malme-3M, in the assay on RXF 393, in the assay on OVCAR-4, in the assay with DU-145 and in the assay on TK-10 was > 100 µM (inactive) in each case.
